According to ChEMBL document CHEMBL4308841, “Synthesis, in vitro antiproliferative activity, and kinase inhibitory effects of pyrazole-containing diarylureas and diarylamides” (Eur J Med Chem, 2018):

How the values were obtained:
M14 [1] = assay: Growth inhibition of human M14 cells assessed as cell growth at 1 uM incubated for 48 hrs by sulforhodamine B assay relative to control; format: functional; settings: M14, 48 h, read-out: Activity
SF-268 [2] = assay: Growth inhibition of human SF268 cells assessed as cell growth at 100 uM incubated for 48 hrs by sulforhodamine B assay relative to control; format: functional; settings: SF-268, 48 h, read-out: Activity
HOP-62 = assay: Growth inhibition of human HOP62 cells assessed as cell growth at 0.01 uM incubated for 48 hrs by sulforhodamine B assay relative to control; format: functional; settings: HOP-62, 48 h, read-out: Activity
A549 = assay: Growth inhibition of human A549/ATCC cells assessed as cell growth at 100 uM incubated for 48 hrs by sulforhodamine B assay relative to control; format: functional; settings: A549, 48 h, read-out: Activity
786-0 = assay: Growth inhibition of human 786-0 cells incubated for 48 hrs by sulforhodamine B assay; format: functional, cell-based; settings: 786-0, 48 h
NCI-H522 = assay: Growth inhibition of human NCI-H522 cells assessed as cell growth at 100 uM incubated for 48 hrs by sulforhodamine B assay relative to control; format: functional; settings: NCI-H522, 48 h, read-out: Activity
NCI-H226 = assay: Growth inhibition of human NCI-H226 cells incubated for 48 hrs by sulforhodamine B assay; format: functional, cell-based; settings: NCI-H226, 48 h
SK-MEL-2 = assay: Growth inhibition of human SK-MEL-2 cells incubated for 48 hrs by sulforhodamine B assay; format: functional, cell-based; settings: SK-MEL-2, 48 h
SK-MEL-5 [3] = assay: Growth inhibition of human SK-MEL-5 cells incubated for 48 hrs by sulforhodamine B assay; format: functional, cell-based; settings: SK-MEL-5, 48 h
OVCAR-5 = assay: Growth inhibition of human OVCAR5 cells assessed as cell growth at 1 uM incubated for 48 hrs by sulforhodamine B assay relative to control; format: functional; settings: OVCAR-5, 48 h, read-out: Activity
M14 [4] = assay: Growth inhibition of human M14 cells assessed as cell growth at 0.1 uM incubated for 48 hrs by sulforhodamine B assay relative to control; format: functional; settings: M14, 48 h, read-out: Activity
SF-539 = assay: Growth inhibition of human SF539 cells incubated for 48 hrs by sulforhodamine B assay; format: functional, cell-based; settings: SF-539, 48 h
SF-268 [5] = assay: Growth inhibition of human SF268 cells incubated for 48 hrs by sulforhodamine B assay; format: functional, cell-based; settings: SF-268, 48 h
U-251 = assay: Growth inhibition of human U251 cells assessed as cell growth at 0.01 uM incubated for 48 hrs by sulforhodamine B assay relative to control; format: functional; settings: U-251, 48 h, read-out: Activity
MCF7 = assay: Growth inhibition of human MCF7 cells incubated for 48 hrs by sulforhodamine B assay; format: functional, cell-based; settings: MCF7, 48 h
OVCAR-4 = assay: Growth inhibition of human OVCAR4 cells assessed as cell growth at 1 uM incubated for 48 hrs by sulforhodamine B assay relative to control; format: functional; settings: OVCAR-4, 48 h, read-out: Activity
BT-549 [6] = assay: Growth inhibition of human BT549 cells incubated for 48 hrs by sulforhodamine B assay; format: functional, cell-based; settings: BT-549, 48 h
SK-MEL-5 [7] = assay: Growth inhibition of human SK-MEL-5 cells assessed as cell growth at 1 uM incubated for 48 hrs by sulforhodamine B assay relative to control; format: functional; settings: SK-MEL-5, 48 h, read-out: Activity
UO-31 = assay: Growth inhibition of human UO31 cells assessed as cell growth at 0.1 uM incubated for 48 hrs by sulforhodamine B assay relative to control; format: functional; settings: UO-31, 48 h, read-out: Activity
Malme-3M = assay: Growth inhibition of human MALME-3M cells assessed as cell growth at 100 uM incubated for 48 hrs by sulforhodamine B assay relative to control; format: functional; settings: read-out: Activity
SR = assay: Growth inhibition of human SR cells incubated for 48 hrs by sulforhodamine B assay; format: functional, cell-based
SN12C = assay: Growth inhibition of human SN12C cells assessed as cell growth at 100 uM incubated for 48 hrs by sulforhodamine B assay relative to control; format: functional; settings: read-out: Activity
BT-549 [8] = assay: Growth inhibition of human BT549 cells assessed as cell growth at 1 uM incubated for 48 hrs by sulforhodamine B assay relative to control; format: functional; settings: BT-549, 48 h, read-out: Activity
SNB-75 = assay: Growth inhibition of human SNB75 cells assessed as cell growth at 1 uM incubated for 48 hrs by sulforhodamine B assay relative to control; format: functional; settings: SNB-75, 48 h, read-out: Activity
NCI-H460 = assay: Growth inhibition of human NCI-H460 cells assessed as cell growth at 0.1 uM incubated for 48 hrs by sulforhodamine B assay relative to control; format: functional; settings: NCI-H460, 48 h, read-out: Activity
SK-MEL-28 = assay: Growth inhibition of human SK-MEL-28 cells assessed as cell growth at 100 uM incubated for 48 hrs by sulforhodamine B assay relative to control; format: functional; settings: SK-MEL-28, 48 h, read-out: Activity
MOLT-4 = assay: Growth inhibition of human MOLT4 cells incubated for 48 hrs by sulforhodamine B assay; format: functional, cell-based; settings: MOLT-4, 48 h
[9] = read-out: LC50 (the source's name)
[10] = read-out: pLC50 (the source's name) (converted)

O=C(Nc1cccc(-n2cc(-c3ccncc3)c(-c3cc(O)cc(Cl)c3)n2)c1)c1ccc(N2CCOCC2)c(C(F)(F)F)c1
growth at 1 µM (M14 [1]): 45%
growth at 100 µM (SF-268 [2]): 38%
growth at 0.01 µM (HOP-62): 100%
growth at 100 µM (A549): -14%
GI50 (786-0; read-out: GI50): 2.24 µM
CC50 (786-0; [9]): 41 µM
TGI (786-0; read-out: TGI): 10.1 µM
GI50 (786-0; read-out: pGI50 (converted)): 2.24 µM
CC50 (786-0; [10]): 40.7 µM
TGI (786-0; read-out: pTGI (converted)): 10 µM
growth at 100 µM (NCI-H522): -20%
GI50 (NCI-H226; read-out: GI50): 2.56 µM
LC50 (NCI-H226; read-out: LC50): > 100 µM
TGI (NCI-H226; read-out: TGI): > 100 µM
GI50 (NCI-H226; read-out: pGI50 (converted)): 28.8 µM
LC50 (NCI-H226; read-out: pLC50 (converted)): > 100 µM
TGI (NCI-H226; read-out: pTGI (converted)): > 100 µM
GI50 (SK-MEL-2; read-out: GI50): 2.34 µM
CC50 (SK-MEL-2; [9]): > 100 µM
TGI (SK-MEL-2; read-out: TGI): 13.2 µM
GI50 (SK-MEL-2; read-out: pGI50 (converted)): 2.34 µM
CC50 (SK-MEL-2; [10]): > 100 µM
TGI (SK-MEL-2; read-out: pTGI (converted)): 13.2 µM
GI50 (SK-MEL-5 [3]; read-out: GI50): 2.33 µM
CC50 (SK-MEL-5 [3]; [9]): 45.4 µM
TGI (SK-MEL-5 [3]; read-out: TGI): 84.9 µM
GI50 (SK-MEL-5 [3]; read-out: pGI50 (converted)): 2.34 µM
CC50 (SK-MEL-5 [3]; [10]): 46.8 µM
TGI (SK-MEL-5 [3]; read-out: pTGI (converted)): 8.51 µM
growth at 1 µM (OVCAR-5): 111%
growth at 0.1 µM (M14 [4]): 91%
GI50 (SF-539; read-out: GI50): 1.44 µM
CC50 (SF-539; [9]): > 100 µM
TGI (SF-539; read-out: TGI): 44.7 µM
GI50 (SF-539; read-out: pGI50 (converted)): 1.45 µM
CC50 (SF-539; [10]): > 100 µM
TGI (SF-539; read-out: pTGI (converted)): 4.47 µM
GI50 (SF-268 [5]; read-out: GI50): 5.51 µM
CC50 (SF-268 [5]; [9]): > 100 µM
TGI (SF-268 [5]; read-out: TGI): > 100 µM
GI50 (SF-268 [5]; read-out: pGI50 (converted)): 8.51 µM
CC50 (SF-268 [5]; [10]): > 100 µM
TGI (SF-268 [5]; read-out: pTGI (converted)): > 100 µM
growth at 0.01 µM (U-251): 97%
GI50 (MCF7; read-out: GI50): 4.18 µM
LC50 (MCF7; read-out: LC50): > 100 µM
TGI (MCF7; read-out: TGI): > 100 µM
GI50 (MCF7; read-out: pGI50 (converted)): 4.17 µM
LC50 (MCF7; read-out: pLC50 (converted)): > 100 µM
TGI (MCF7; read-out: pTGI (converted)): > 100 µM
growth at 1 µM (OVCAR-4): 99%
GI50 (BT-549 [6]; read-out: GI50): 4.21 µM
CC50 (BT-549 [6]; [9]): > 100 µM
TGI (BT-549 [6]; read-out: TGI): > 100 µM
GI50 (BT-549 [6]; read-out: pGI50 (converted)): 4.17 µM
CC50 (BT-549 [6]; [10]): > 100 µM
TGI (BT-549 [6]; read-out: pTGI (converted)): > 100 µM
growth at 1 µM (SK-MEL-5 [7]): 52%
growth at 0.1 µM (UO-31): 95%
growth at 100 µM (Malme-3M): -25%
GI50 (SR; read-out: GI50): 0.338 µM
CC50 (SR; [9]): > 100 µM
TGI (SR; read-out: TGI): 15.3 µM
GI50 (SR; read-out: pGI50 (converted)): 0.339 µM
CC50 (SR; [10]): > 100 µM
TGI (SR; read-out: pTGI (converted)): 1.82 µM
growth at 100 µM (SN12C): 38%
growth at 1 µM (BT-549 [8]): 75%
growth at 1 µM (SNB-75): 45%
growth at 0.1 µM (NCI-H460): 104%
growth at 100 µM (SK-MEL-28): -22%
GI50 (MOLT-4; read-out: GI50): 1.11 µM
CC50 (MOLT-4; [9]): > 100 µM
TGI (MOLT-4; read-out: TGI): 43.6 µM
GI50 (MOLT-4; read-out: pGI50 (converted)): 1.12 µM
CC50 (MOLT-4; [10]): > 100 µM
TGI (MOLT-4; read-out: pTGI (converted)): 4.47 µM
